Experiments:
EGFR (d746-750) = target: T1, EGFR (d746-750) (Homo sapiens, UniProt P00533, DEL746-750); test: Biochemical EGFR inhibition assay (Caliper mobility shift), EGFR (d746-750); conditions: biochemical Caliper mobility shift assay, EGFR Exon 19-del enzyme; read-out: Enz EGFR Exon 19-del IC50
T1 construct: purchased SignalChem E10-122JG
In short: (§1)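 Compounds were titrated against enzyme phosphorylating a 5-FAM peptide (2.5 µM) in 100 mM HEPES, pH 7.5, 10 mM MgCl2, 1 mM DTT. ATP was held at 1.0 mM or at Km, and reactions ran at 25 °C until 10–20% conversion before EDTA quench. Apparent IC50 values come from percent activity plotted against log concentration.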

EGFR L858R = target: T2, EGFR L858R (Homo sapiens, UniProt P00533, L858R); test: Biochemical EGFR inhibition assay (Caliper mobility shift), EGFR L858R; conditions: biochemical Caliper mobility shift assay, EGFR L858R enzyme; read-out: Enz EGFR L858R IC50
T2 construct: purchased SignalChem E10-122BG
T2 sequence (P00533 25-1210 L858R): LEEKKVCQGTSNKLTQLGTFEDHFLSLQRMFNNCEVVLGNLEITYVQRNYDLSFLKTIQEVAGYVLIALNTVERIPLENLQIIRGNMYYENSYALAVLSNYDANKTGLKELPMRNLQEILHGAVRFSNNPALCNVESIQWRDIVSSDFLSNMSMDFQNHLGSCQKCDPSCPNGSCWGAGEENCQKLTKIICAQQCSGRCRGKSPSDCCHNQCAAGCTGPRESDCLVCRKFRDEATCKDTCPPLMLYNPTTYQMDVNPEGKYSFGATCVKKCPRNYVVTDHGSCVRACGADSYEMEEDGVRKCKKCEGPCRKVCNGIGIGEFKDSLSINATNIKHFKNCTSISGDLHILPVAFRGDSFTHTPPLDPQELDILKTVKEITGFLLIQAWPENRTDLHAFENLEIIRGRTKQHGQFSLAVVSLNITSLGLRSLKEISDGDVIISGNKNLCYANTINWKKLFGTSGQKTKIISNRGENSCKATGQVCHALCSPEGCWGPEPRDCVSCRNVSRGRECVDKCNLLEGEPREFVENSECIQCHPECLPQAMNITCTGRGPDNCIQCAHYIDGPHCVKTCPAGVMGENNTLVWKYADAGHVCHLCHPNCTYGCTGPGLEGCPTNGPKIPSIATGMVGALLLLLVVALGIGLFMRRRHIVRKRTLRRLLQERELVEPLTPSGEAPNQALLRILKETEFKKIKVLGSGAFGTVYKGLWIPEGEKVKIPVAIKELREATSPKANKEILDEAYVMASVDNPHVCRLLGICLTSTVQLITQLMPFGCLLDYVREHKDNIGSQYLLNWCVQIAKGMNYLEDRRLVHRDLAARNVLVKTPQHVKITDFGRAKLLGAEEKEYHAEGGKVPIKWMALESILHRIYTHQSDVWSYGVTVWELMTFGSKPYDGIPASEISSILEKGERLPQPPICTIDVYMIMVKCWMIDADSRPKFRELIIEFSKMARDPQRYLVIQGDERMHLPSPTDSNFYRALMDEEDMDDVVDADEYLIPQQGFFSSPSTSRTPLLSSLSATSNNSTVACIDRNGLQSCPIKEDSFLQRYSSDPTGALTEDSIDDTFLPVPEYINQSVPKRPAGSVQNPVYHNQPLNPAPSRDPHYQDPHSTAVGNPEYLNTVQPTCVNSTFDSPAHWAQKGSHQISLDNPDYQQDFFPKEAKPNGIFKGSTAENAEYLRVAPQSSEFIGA
In short: as §1

[1] = target: intracellular phosphorylation of EGFR (Tyr1068) in PC-9 cells (Homo sapiens, UniProt P00533, DEL746-750); test: PC-9 pEGFR AlphaLISA assay; type: cell-based; conditions: 4 hours incubation, read-out: Phos EGFR PC9 IC50
intracellular phosphorylation of EGFR (Tyr1068) in PC-9 cells, sequence (P00533 with tags, fused parts or gaps DEL746-750): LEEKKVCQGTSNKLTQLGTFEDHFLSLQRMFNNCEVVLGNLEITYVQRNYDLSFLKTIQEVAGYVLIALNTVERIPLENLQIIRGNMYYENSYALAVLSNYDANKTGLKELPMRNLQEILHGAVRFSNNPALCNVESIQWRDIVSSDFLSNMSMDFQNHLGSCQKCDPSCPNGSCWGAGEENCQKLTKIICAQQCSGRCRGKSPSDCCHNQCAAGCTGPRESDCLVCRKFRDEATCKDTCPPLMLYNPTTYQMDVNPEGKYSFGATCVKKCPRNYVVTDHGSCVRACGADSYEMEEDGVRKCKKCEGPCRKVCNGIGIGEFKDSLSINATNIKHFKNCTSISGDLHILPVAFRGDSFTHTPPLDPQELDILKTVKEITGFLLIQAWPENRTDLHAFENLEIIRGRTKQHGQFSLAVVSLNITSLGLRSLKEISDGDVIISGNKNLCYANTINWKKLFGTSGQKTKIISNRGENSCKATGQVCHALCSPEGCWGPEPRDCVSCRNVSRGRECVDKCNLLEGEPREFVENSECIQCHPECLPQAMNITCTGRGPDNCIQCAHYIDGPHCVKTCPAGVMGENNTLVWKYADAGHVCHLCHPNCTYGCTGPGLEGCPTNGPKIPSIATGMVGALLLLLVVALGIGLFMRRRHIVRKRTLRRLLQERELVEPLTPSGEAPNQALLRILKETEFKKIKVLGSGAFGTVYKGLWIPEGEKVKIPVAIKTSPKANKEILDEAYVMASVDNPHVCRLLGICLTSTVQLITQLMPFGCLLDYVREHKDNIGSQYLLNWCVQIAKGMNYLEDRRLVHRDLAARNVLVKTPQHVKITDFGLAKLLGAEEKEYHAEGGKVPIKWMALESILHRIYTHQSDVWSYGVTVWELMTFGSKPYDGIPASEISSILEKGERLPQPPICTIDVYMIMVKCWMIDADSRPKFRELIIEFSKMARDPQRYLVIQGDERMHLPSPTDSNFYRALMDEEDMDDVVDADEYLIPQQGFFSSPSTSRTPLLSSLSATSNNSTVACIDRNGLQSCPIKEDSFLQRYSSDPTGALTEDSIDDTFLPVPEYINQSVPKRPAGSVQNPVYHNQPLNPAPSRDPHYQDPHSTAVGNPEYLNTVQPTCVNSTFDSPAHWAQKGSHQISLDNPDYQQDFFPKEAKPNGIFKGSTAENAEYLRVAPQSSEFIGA
In short: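 PC-9 cells (EGFR del746-750) in phenol-free DMEM/10% FBS, adhered overnight, then exposed to 10-point 4-fold compound dilutions for 4 h at 37 °C. Lysates assayed for pEGFR Tyr1068 by AlphaLISA SureFire Ultra; IC50 from percent pEGFR inhibition vs log concentration.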

T1 sequence (P00533 with tags, fused parts or gaps DEL746-750 limits assumed): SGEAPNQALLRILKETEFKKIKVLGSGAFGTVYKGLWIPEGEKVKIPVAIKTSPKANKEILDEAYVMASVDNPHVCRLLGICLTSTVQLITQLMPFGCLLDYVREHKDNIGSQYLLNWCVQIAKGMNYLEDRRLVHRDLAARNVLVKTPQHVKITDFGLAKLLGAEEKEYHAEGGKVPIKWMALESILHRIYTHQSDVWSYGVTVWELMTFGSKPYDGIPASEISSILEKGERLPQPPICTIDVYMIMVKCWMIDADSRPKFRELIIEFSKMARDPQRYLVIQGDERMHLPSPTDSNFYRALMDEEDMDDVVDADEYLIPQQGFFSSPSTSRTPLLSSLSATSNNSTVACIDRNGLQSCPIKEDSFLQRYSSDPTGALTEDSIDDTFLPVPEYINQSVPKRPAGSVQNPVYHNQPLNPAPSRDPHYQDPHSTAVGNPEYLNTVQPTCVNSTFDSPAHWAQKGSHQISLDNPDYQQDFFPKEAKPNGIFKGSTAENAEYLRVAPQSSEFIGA

Row | Compound | IC50 (EGFR (d746-750)) [nM] | IC50 (EGFR L858R) [nM] | IC50 [1] [nM]
1 | COc1nn(C)cc1-c1cc(OC2CCN(C)CC2(F)F)c2c(Nc3ccc4ncsc4c3)ncnc2c1 (stereo not drawn) [Example 1, N-(5-((3,3-difluoro-1-methylpiperidin-4-yl)oxy)-7-(3-methoxy-1-methyl-1H-pyrazol-4-yl)quinazolin-4-yl)benzo[d]thiazol-6-amine] | ≤ 10 | ≤ 10 | ≤ 10
2 | CN1CCC(Oc2cc(-c3cnn(C)c3)cc3ncnc(Nc4ccc5ncsc5c4)c23)C(F)(F)C1 (stereo not drawn) [Example 2, N-(5-((3,3-difluoro-1-methylpiperidin-4-yl)oxy)-7-(1-methyl-1H-pyrazol-4-yl)quinazolin-4-yl)benzo[d]thiazol-6-amine] | ≤ 10 | ≤ 10 | ≤ 10
3 | COc1cc(-c2cnn(C)c2)cc2ncnc(Nc3ccc4ncsc4c3F)c12 [Example 3, 7-fluoro-N-(5-methoxy-7-(1-methyl-1H-pyrazol-4-yl)quinazolin-4-yl)benzo[d]thiazol-6-amine] | ≤ 10 | ≤ 10 | 10.1 to 50
4 | Cn1cc(-c2cc(O[C@H]3CC[C@H](O)CC3)c3c(Nc4ccc5ncsc5c4)ncnc3c2)cn1 [Example 5, (1r,4r)-4-((4-(benzo[d]thiazol-6-ylamino)-7-(1-methyl-1H-pyrazol-4-yl)quinazolin-5-yl)oxy)cyclohexan-1-ol] | ≤ 10 | ≤ 10 | ≤ 10
5 | Cn1cc(-c2cc(O[C@H]3CC[C@@H](O)CC3)c3c(Nc4ccc5ncsc5c4)ncnc3c2)cn1 [Example 11, (1s,4s)-4-((4-(benzo[d]thiazol-6-ylamino)-7-(1-methyl-1H-pyrazol-4-yl)quinazolin-5-yl)oxy)cyclohexan-1-ol] | ≤ 10 | ≤ 10 | ≤ 10
6 | COc1nn(C)cc1-c1cc(O[C@H]2CCCN(C)C2)c2c(Nc3ccc4ncsc4c3)ncnc2c1 [Example 12, (S)-N-(7-(3-methoxy-1-methyl-1H-pyrazol-4-yl)-5-((1-methylpiperidin-3-yl)oxy)quinazolin-4-yl)benzo[d]thiazol-6-amine] | ≤ 10 | ≤ 10 | ≤ 10
7 | Cn1cc(-c2cc(OCC3COC3)c3c(Nc4ccc5ncsc5c4F)ncnc3c2)cn1 [Example 13, 7-fluoro-N-(7-(1-methyl-1H-pyrazol-4-yl)-5-(oxetan-3-ylmethoxy)quinazolin-4-yl)benzo[d]thiazol-6-amine] | ≤ 10 | ≤ 10 | ≤ 10
8 | Cn1cc(-c2cc(OC3COCC3(F)F)c3c(Nc4ccc5ncsc5c4)ncnc3c2)cn1 (stereo not drawn) [Example 14, N-(5-((4,4-difluorotetrahydrofuran-3-yl)oxy)-7-(1-methyl-1H-pyrazol-4-yl)quinazolin-4-yl)benzo[d]thiazol-6-amine] | ≤ 10 | ≤ 10 | 10.1 to 50
9 | Cn1cc(-c2cc(OC3CCOCC3)c3c(Nc4ccc5ncsc5c4)ncnc3c2)cn1 [Example 15, N-(7-(1-methyl-1H-pyrazol-4-yl)-5-((tetrahydro-2H-pyran-4-yl)oxy)quinazolin-4-yl)benzo[d]thiazol-6-amine] | ≤ 10 | ≤ 10 | ≤ 10
10 | COc1nn(C)cc1-c1cc(OC2COC2)c2c(Nc3ccc4ncsc4c3)ncnc2c1 [Example 18, N-(7-(3-methoxy-1-methyl-1H-pyrazol-4-yl)-5-(oxetan-3-yloxy)quinazolin-4-yl)benzo[d]thiazol-6-amine] | ≤ 10 | ≤ 10 | ≤ 10
11 | Cn1cc(-c2cc(O[C@H]3C[C@H](O)C3)c3c(Nc4ccc5ncsc5c4)ncnc3c2)cn1 [Example 19, trans-3-((4-(benzo[d]thiazol-6-ylamino)-7-(1-methyl-1H-pyrazol-4-yl)quinazolin-5-yl)oxy)cyclobutan-1-ol] | ≤ 10 | ≤ 10 | ≤ 10
12 | Cn1cc(-c2cc(O[C@H]3C[C@@H](O)C3)c3c(Nc4ccc5ncsc5c4)ncnc3c2)cn1 [Example 20, cis-3-((4-(benzo[d]thiazol-6-ylamino)-7-(1-methyl-1H-pyrazol-4-yl)quinazolin-5-yl)oxy)cyclobutan-1-ol] | ≤ 10 | ≤ 10 | ≤ 10
13 | CN(C)C1CCC(Oc2cc(-c3cnn(C)c3)cc3ncnc(Nc4ccc5ncsc5c4)c23)CC1 (stereo not drawn) [Example 21, N-(5-((4-(dimethylamino)cyclohexyl)oxy)-7-(1-methyl-1H-pyrazol-4-yl)quinazolin-4-yl)benzo[d]thiazol-6-amine] | ≤ 10 | ≤ 10 | ≤ 10

Next, values leading:

Row | IC50 (EGFR (d746-750)) [nM] | IC50 (EGFR L858R) [nM] | IC50 [1] [nM] | Compound
14 | ≤ 10 | ≤ 10 | 10.1 to 50 | CO[C@H]1COC[C@@H]1Oc1cc(-c2cnn(C)c2)cc2ncnc(Nc3ccc4ncsc4c3)c12 (single isomer, unassigned) [Example A31]
15 | ≤ 10 | 10.1 to 50 | 10.1 to 50 | CO[C@H]1COC[C@@H]1Oc1cc(-c2cnn(C)c2)cc2ncnc(Nc3ccc4ncsc4c3)c12 (single isomer, unassigned) [Example A32]
16 | ≤ 10 | ≤ 10 | ≤ 10 | CN1CC[C@H](O)[C@@H](Oc2cc(-c3cnn(C)c3)cc3ncnc(Nc4ccc5ncsc5c4)c23)C1 (single isomer, unassigned) [Example A33]
17 | ≤ 10 | 10.1 to 50 | > 50.1 | CN1CC[C@H](O)[C@@H](Oc2cc(-c3cnn(C)c3)cc3ncnc(Nc4ccc5ncsc5c4)c23)C1 (single isomer, unassigned) [Example A34]
18 | ≤ 10 | ≤ 10 | 10.1 to 50 | CN1CC[C@H](Oc2cc(-c3cnn(C)c3)cc3ncnc(Nc4ccc5ncsc5c4)c23)[C@@H](O)C1 (single isomer, unassigned) [Example A35]
19 | ≤ 10 | ≤ 10 | 10.1 to 50 | CO[C@@H]1CCNC[C@H]1Oc1cc(-c2cnn(C)c2)cc2ncnc(Nc3ccc4ncsc4c3)c12 (single isomer, unassigned) [Example A37]
20 | ≤ 10 | 10.1 to 50 | 10.1 to 50 | CO[C@@H]1CCNC[C@H]1Oc1cc(-c2cnn(C)c2)cc2ncnc(Nc3ccc4ncsc4c3)c12 (single isomer, unassigned) [Example A38]
21 | ≤ 10 | 10.1 to 50 | > 50.1 | CO[C@@H]1CCN(C)C[C@H]1Oc1cc(-c2cnn(C)c2)cc2ncnc(Nc3ccc4ncsc4c3)c12 (single isomer, unassigned) [Example A39]
22 | ≤ 10 | ≤ 10 | 10.1 to 50 | CO[C@@H]1CCN(C)C[C@H]1Oc1cc(-c2cnn(C)c2)cc2ncnc(Nc3ccc4ncsc4c3)c12 (single isomer, unassigned) [Example A40]
23 | ≤ 10 | ≤ 10 | 10.1 to 50 | CO[C@@H]1CNCC[C@H]1Oc1cc(-c2cnn(C)c2)cc2ncnc(Nc3ccc4ncsc4c3)c12 (single isomer, unassigned) [Example A41]
24 | ≤ 10 | ≤ 10 | ≤ 10 | CO[C@@H]1CNCC[C@H]1Oc1cc(-c2cnn(C)c2)cc2ncnc(Nc3ccc4ncsc4c3)c12 (single isomer, unassigned) [Example A42]
25 | ≤ 10 | ≤ 10 | 10.1 to 50 | CO[C@@H]1CN(C)CC[C@H]1Oc1cc(-c2cnn(C)c2)cc2ncnc(Nc3ccc4ncsc4c3)c12 (single isomer, unassigned) [Example A43]
26 | ≤ 10 | ≤ 10 | ≤ 10 | COc1nn(C)cc1-c1cc(O[C@H]2COC[C@@H]2O)c2c(Nc3ccc4ncsc4c3)ncnc2c1 (single isomer, unassigned) [Example A48]
27 | ≤ 10 | 10.1 to 50 | 10.1 to 50 | COc1nn(C)cc1-c1cc(O[C@H]2COC[C@@H]2O)c2c(Nc3ccc4ncsc4c3)ncnc2c1 (single isomer, unassigned) [Example A49]
28 | ≤ 10 | ≤ 10 | ≤ 10 | Cn1cc(-c2cc(O[C@@H]3CC[C@@H]3O)c3c(Nc4ccc5ncsc5c4)ncnc3c2)cn1 (single isomer, unassigned) [Example A51]
29 | ≤ 10 | ≤ 10 | ≤ 10 | Cn1cc(-c2cc(O[C@@H]3CC[C@H]3O)c3c(Nc4ccc5ncsc5c4)ncnc3c2)cn1 (single isomer, unassigned) [Example A53]
30 | ≤ 10 | ≤ 10 | 10.1 to 50 | Cn1cc(-c2cc(O[C@@H]3CC[C@H]3O)c3c(Nc4ccc5ncsc5c4)ncnc3c2)cn1 (single isomer, unassigned) [Example A54]
31 | ≤ 10 | ≤ 10 | ≤ 10 | Cn1cc(-c2cc(O[C@H]3CC[C@@H](N(C)C)CC3)c3c(Nc4ccc5ncsc5c4)ncnc3c2)cn1 [Example 22, N-(5-(((1s,4s)-4-(dimethylamino)cyclohexyl)oxy)-7-(1-methyl-1H-pyrazol-4-yl)quinazolin-4-yl)benzo[d]thiazol-6-amine]
32 | 10.1 to 50 | 10.1 to 50 | 10.1 to 50 | CN1CC(Oc2cc(-c3cnn(C)c3)cc3ncnc(Nc4ccc5ncsc5c4)c23)C1 [Example 27, N-(7-(1-methyl-1H-pyrazol-4-yl)-5-((1-methylazetidin-3-yl)oxy)quinazolin-4-yl)benzo[d]thiazol-6-amine]
